# Laboratory results taken from US6358885B1, “Substituted phenylheterocyclic herbicides” (Mississippi State University, priority 1992, dated 2002).
# Key:
# blackgrass = assay: Test B preemergence/postemergence greenhouse plant response rating 0 to 10; format: in vivo, Alopecurus myosuroides; conditions: 0 to 10 scale
# How it was run: (§1)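 Planted seeds are treated preemergence with compound dissolved in a non-phytotoxic solvent, while postemergence applications go onto plants of two to eighteen cm. Plants stay in the greenhouse twelve to sixteen days and are then rated visually relative to controls.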
# purple nutsedge = assay: as above; format: in vivo, Cyperus rotundus; conditions: 0 to 10 scale
# How it was run: as §1
# wheat = assay: Test C preemergence/postemergence greenhouse plant response rating 0 to 100; format: in vivo, Triticum aestivum; conditions: POSTEMERGENCE; for Plant response rating, Wheat: 0 to 100 scale
# Excerpt: (§2) The compounds evaluated in this test were formulated in a non-phytoxic solvent and applied to the soil surface before plant seedlings emerged (preemergence application), to water that covered the soil surface (flood application), and to plants that were in the one-to-four leaf stage (postemergence application). A sandy loam soil was used for the preemergence and postemergence tests, while a silt loam soil was used in the flood test. Water depth was approximately 2.5 cm for the flood test and was maintained at this level for the duration of the test. Plant species in the preemergence and postemergence tests consisted of barley (Hordeum vulgare), bedstraw (Galium aparine), blackgrass (Alopecurus myosuroides), chickweed (Stellaria media), corn (Zea mays), cotton (Gossypium hirsutum), crabgrass (Digitaria sanguinalis), downy brome (Bromus tectorum), giant foxtail (Setaria faberii), lambsquarters (Chenopodium album), morningglory (Ipomoea hederacea), pigweed ([…]), rape (Brassica napus), ryegrass (Lolium multiflorum), sorghum (Sorghum bicolor), soybean (Glycine max), speedwell (Veronica persica), sugar beet (Beta vulgaris), velvetleaf (Abutilon theophrasti), wheat (Triticum aestivum), wild buckwheat (Polygonum convolvulus), and wild oat (Avena fatua). All plant species were planted one day before application of the compound for the preemergence portion-of this test. Plantings of these species were adjusted to produce plants of appropriate size for the post-emergence portion of the test. […] All plant species were grown using normal greenhouse practices. Visual evaluations of injury expressed on treated plants, when compared to untreated controls, were recorded approximately fourteen to twenty one days after application of the test compound. […] A dash (-) response means no test result.
# rape = assay: Test B preemergence/postemergence greenhouse plant response rating 0 to 10; format: in vivo, Brassica napus; conditions: 0 to 10 scale
# How it was run: as §1
# giant foxtail = assay: as above; format: in vivo, Setaria faberii; conditions: 0 to 10 scale
# How it was run: as §1
# corn = assay: Test C preemergence/postemergence greenhouse plant response rating 0 to 100; format: in vivo, Zea mays; conditions: POSTEMERGENCE; for Plant response rating, Corn: 0 to 100 scale
# Excerpt: as §2
# barnyardgrass = assay: Test B preemergence/postemergence greenhouse plant response rating 0 to 10; format: in vivo, Echinochloa crus-galli; conditions: 0 to 10 scale
# How it was run: as §1
# rice = assay: Test C flood test plant response rating 0 to 100; format: in vivo, Oryza sativa; conditions: for Plant response rating Rice Japonica: flood test species listed under POSTEMERGENCE, 0 to 100 scale
# Excerpt: as §2
# wild buckwheat = assay: Test C preemergence/postemergence greenhouse plant response rating 0 to 100; format: in vivo, Polygonum convolvulus; conditions: POSTEMERGENCE; for Plant response rating, Wild buckwheat: 0 to 100 scale
# Excerpt: as §2
# wild oat = assay: as above; format: in vivo, Avena fatua; conditions: POSTEMERGENCE; for Plant response rating, Wild oat: 0 to 100 scale
# Excerpt: as §2
# crabgrass = assay: Test B preemergence/postemergence greenhouse plant response rating 0 to 10; format: in vivo, Digitaria spp.; conditions: 0 to 10 scale
# How it was run: as §1
# morningglory = assay: Test C preemergence/postemergence greenhouse plant response rating 0 to 100; format: in vivo, Ipomoea hederacea; conditions: POSTEMERGENCE; for Plant response rating, Morningglory: 0 to 100 scale
# Excerpt: as §2
structure (smiles),measurement,setting,value
CCC(C)Oc1cc(-c2nn3c(c2Cl)CCCC3)c(F)cc1Cl (stereo not drawn) [Compound 48],"Plant response rating, Blackgrass","blackgrass; POSTEMERGENCE, Rate 50 g/ha",6
same,"Plant response rating, Blackgrass","blackgrass; POSTEMERGENCE, Rate 200 g/ha",6
same,"Plant response rating, Blackgrass","blackgrass; PREEMERGENCE, Rate 50 g/ha",0
same,"Plant response rating, Blackgrass","blackgrass; Rate 200 g/ha, PREEMERGENCE",5
same,"Plant response rating, Nutsedge","purple nutsedge; POSTEMERGENCE, Rate 50 g/ha",4
same,"Plant response rating, Nutsedge","purple nutsedge; PREEMERGENCE, Rate 50 g/ha",0
same,"Plant response rating, Nutsedge","purple nutsedge; Rate 200 g/ha, POSTEMERGENCE",5
same,"Plant response rating, Nutsedge","purple nutsedge; Rate 200 g/ha, PREEMERGENCE",0
same,"Plant response rating, Wheat",wheat; 62 g/ha,30
same,"Plant response rating, Wheat",wheat; 250 g/ha,50
same,"Plant response rating (0 to 100), Wheat",wheat; Rate 4 g/ha,10
same,"Plant response rating (0 to 100), Wheat",wheat; Rate 16 g/ha,20
same,"Plant response rating, Rape","rape; POSTEMERGENCE, Rate 50 g/ha",8
same,"Plant response rating, Rape","rape; PREEMERGENCE, Rate 50 g/ha",4
same,"Plant response rating, Rape","rape; Rate 200 g/ha, POSTEMERGENCE",6
same,"Plant response rating, Rape","rape; Rate 200 g/ha, PREEMERGENCE",9
same,"Plant response rating, Giant foxtail","giant foxtail; POSTEMERGENCE, Rate 50 g/ha",6
same,"Plant response rating, Giant foxtail","giant foxtail; PREEMERGENCE, Rate 50 g/ha",6
same,"Plant response rating, Giant foxtail","giant foxtail; Rate 200 g/ha, POSTEMERGENCE",9
same,"Plant response rating, Giant foxtail","giant foxtail; Rate 200 g/ha, PREEMERGENCE",9
same,"Plant response rating, Corn",corn; 62 g/ha,40
same,"Plant response rating, Corn",corn; 250 g/ha,50
same,"Plant response rating (0 to 100), Corn",corn; Rate 4 g/ha,10
same,"Plant response rating (0 to 100), Corn",corn; Rate 16 g/ha,30
same,"Plant response rating, Barnyardgrass","barnyardgrass; POSTEMERGENCE, Rate 50 g/ha",4
same,"Plant response rating, Barnyardgrass","barnyardgrass; POSTEMERGENCE, Rate 200 g/ha",8
same,"Plant response rating, Barnyardgrass","barnyardgrass; PREEMERGENCE, Rate 50 g/ha",2
same,"Plant response rating, Barnyardgrass","barnyardgrass; Rate 200 g/ha, PREEMERGENCE",3
same,"Plant response rating (0 to 100), Rice Japonica","rice; POSTEMERGENCE section, flood test, Rate 4 g/ha",10
same,"Plant response rating (0 to 100), Rice Japonica","rice; Rate 16 g/ha, under POSTEMERGENCE head (flood test species)",20
same,Plant response rating Rice Japonica,rice; 62 g/ha,30
same,Plant response rating Rice Japonica,rice; 250 g/ha,60
same,"Plant response rating, Wild buckwheat",wild buckwheat; 62 g/ha,100
same,"Plant response rating, Wild buckwheat",wild buckwheat; 250 g/ha,100
same,"Plant response rating (0 to 100), Wild buckwheat",wild buckwheat; Rate 4 g/ha,60
same,"Plant response rating (0 to 100), Wild buckwheat",wild buckwheat; Rate 16 g/ha,85
same,"Plant response rating, Wild oat",wild oat; 62 g/ha,40
same,"Plant response rating, Wild oat",wild oat; 250 g/ha,60
same,"Plant response rating (0 to 100), Wild oat",wild oat; Rate 4 g/ha,20
same,"Plant response rating (0 to 100), Wild oat",wild oat; Rate 16 g/ha,30
same,"Plant response rating, Crabgrass","crabgrass; POSTEMERGENCE, Rate 50 g/ha",8
same,"Plant response rating, Crabgrass","crabgrass; POSTEMERGENCE, Rate 200 g/ha",9
same,"Plant response rating, Crabgrass","crabgrass; PREEMERGENCE, Rate 50 g/ha",2
same,"Plant response rating, Crabgrass","crabgrass; Rate 200 g/ha, PREEMERGENCE",9
same,"Plant response rating, Morningglory",morningglory; 62 g/ha,60
same,"Plant response rating, Morningglory",morningglory; 250 g/ha,95
same,"Plant response rating (0 to 100), Morningglory",morningglory; Rate 4 g/ha,30
same,"Plant response rating (0 to 100), Morningglory",morningglory; Rate 16 g/ha,50
